Measured values published in PubChem BioAssay (NCI).
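Following 48 hours of exposure in 96-well plates, responses at five concentrations were used to interpolate endpoints linearly. Abbreviation: GI50, concentration required for 50% inhibition of growth. TGI: total growth inhibition.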

test system: MDA-MB-468 breast; experiment: NCI-60 cell line screen, 48 h

| SMILES | GI50 | TGI |
| --- | --- | --- |
| CCCCC/C=C/C(=O)CCc1ccc(O)c(OC)c1 | 3.18 µM | 13 µM |
| Cc1nn(-c2ccccc2)c(-n2ccnc2)c1/C=N/Nc1nc(-c2ccc(Cl)c(Cl)c2)cs1 | 1.47 µM | 7.92 µM |
| CN1CCN(Cc2ccc(NC(=O)c3cncc(C#Cc4cnc5ccc(OCC6(C)COC6)nn45)c3)cc2C(F)(F)F)CC1 | 0.12 µM | 0.36 µM |
| CSc1nn2c(-c3ccc4ccccc4c3)ccnc2c1C#N | 2.87 µM | 18.3 µM |
| CNC1CCc2c(sc(NC(=O)c3ccc(C(C)(C)C)cc3)c2C(N)=O)C1 (configuration not stated) | 1.84 µM | 3.58 µM |
| Cc1nnc([S-])o1.[Au+].c1ccc([PH+](c2ccccc2)c2ccccc2)cc1 | 1.38 µM | 2.8 µM |
| CCOC(=O)c1ccc(NC(=O)Nc2nccs2)cc1 | 0.0467 µM | > 100 µM |
| C=C1C(=O)O[C@H]2[C@H]1CC/C(COC(=O)NCc1[nH]nc3ccccc13)=C\CC[C@@]1(C)O[C@@H]21 | 0.736 µM | 2.72 µM |
| Oc1ccc(/C=C/c2ccc(O)cc2)cc1 | 10.7 µM | > 100 µM |
| CCCCN(CCCC)CC(O)c1ccc(OCc2ccccc2)c2ccccc12 (configuration not stated) | 2.17 µM | 6 µM |
| C=C(C)[C@@H]1CC[C@]2(COC(C)=O)CC[C@]3(C)[C@H](CC[C@@H]4[C@@]5(C)CCCN(C(C)=O)C(C)(C)[C@@H]5CC[C@]43C)[C@@H]12 | 1.53 µM | 3 µM |
| COc1cccc(-n2ncc3c(N/N=C/c4ccc(F)cc4)ncnc32)c1 | > 25 µM | > 25 µM |
| COc1cc(-c2cncn2-c2ccc(-c3nc4ccc(F)cc4s3)cc2)ccc1F | 11.1 µM | > 100 µM |
| COC(=O)[C@@H]1CCCN1C(=O)[C@@H]1CCCN1C(=O)[C@H](Cc1ccccc1)NC(=S)Nc1cc(C(F)(F)F)cc(C(F)(F)F)c1 | 2.48 µM | 9.62 µM |
| CC(C)(C)CC(C)(C)c1ccc(OCCSC(=N)N)cc1 | 0.358 µM | 1.9 µM |
| COc1ccc(/C=C2\CS(=O)(=O)C/C(=C\c3ccc(OC)cc3)C2=O)cc1 | 1.59 µM | 5.18 µM |
| COc1ccc(CN2CCc3c(Sc4ccccc4)nc(N)nc3C2=O)c(OC)c1 | 3.51 µM | 14 µM |
| CCNC(=O)N1CCc2cc(OC)c(OCCc3ccc(OC)nc3)cc2C1c1ccc(C)cc1C (configuration not stated) | 1.59 µM | 7.58 µM |
| CCC(/C=C(C)/C=C/C(=O)c1c(O)c(-c2ccc(O)cc2)c[nH]c1=O)CO (configuration not stated) | 5.24 µM | 24.4 µM |
| Cc1ccc2c(NCCCN(C)C)c3c(C)nn(C)c3nc2c1 | 2.71 µM | 10.2 µM |
| C=CCOC1=CC(=O)c2ccccc2C1=O | 2.08 µM | 5.14 µM |
| O=C(Nc1cccc(-n2cc(-c3ccncc3)c(-c3ccc(Cl)c(O)c3)n2)c1)Nc1cccc(C(F)(F)F)c1 | 0.98 µM | 7.83 µM |
| C=C1C(=O)O[C@H]2[C@H]1CC/C(COC(=O)NCc1ccc(Cn3c(=O)sn(CCI)c3=O)cc1)=C\CC[C@@]1(C)O[C@@H]21 | 1.25 µM | 2.81 µM |
| Cn1cc(C2=C(c3cn(C)c4cc(C(=O)O)ccc34)C(=O)NC2=O)c2ccccc21 | > 25 µM | > 25 µM |
| CN(C)c1ccc(O)c2c1CC1CC3C(N(C)C)C(=O)C(C(N)=O)=C(O)C3(O)C(=O)C1=C2O (configuration not stated) | 11 µM | 57.7 µM |
| COC(=O)c1c2c(c(C)[n+]([O-])c1C)C(=O)C(NCc1cccc(Cl)c1)=CC2=O | 0.896 µM | 2.5 µM |
